Tests used:
[1] = pH reduction of an environment by bacterial strain (Table 1, (b)); conditions: capable of reducing the pH of an environment from 7.5 or higher to less than 7.5
Excerpt: (§1) Exemplary bacterial strains determined to be capable of (b) reducing the pH of an environment from 7.5 or higher to less than 7.5; (c) reducing the abundance of one or more VSCs in an environment having a pH of less than 7.5; and/or (d) enhances the reduction of one or more VSCs by another bacterial strain in an environment with a pH of 7.5 or higher, are listed below in Table 1.

[2] = system: volatile sulfur compounds (VSCs); experiment: VSC reduction in an environment having a pH of less than 7.5 (Table 1, (c)); conditions: capable of reducing the abundance of one or more VSCs in an environment having a pH of less than 7.5
Excerpt: as §1
Some bacterial strains of compositions, nutritional supplements, dental supplements, and food products were identified based on the ability to reduce the abundance of volatile sulfur compounds (VSCs) in an environment, and/or inhibit the production of VSCs by other microorganisms in the environment. VSCs are associated with the unpleasant odor of breath of subjects with halitosis, and reduction in VSC abundance (e.g., by VSC metabolism or inhibition of VSC production) is expected to alleviate this symptom of halitosis. Non-limiting examples of such VSCs include hydrogen sulfide, methyl mercaptan, and dimethyl sulfide, all of which give off strong and unpleasant odors.

| Substance | (b) pH reduction [1] | (c) VSC reduction [2] |
| --- | --- | --- |
| Bifidobacterium longum | Yes |  |
| Lactobacillus acidophilus | Yes | Yes |
| Pediococcus acidilactici | Yes | Yes |

From US12576115B2, “Bacterial compositions for treating and preventing halitosis” (Imvela Corp., priority 2023, dated 2026)
